Source: patent publication US10669246B2, “Benzothiazol compounds and methods using the same for treating neurodegenerative disorders” (1ST Biotherapeutics, Inc., priority 2017, dated 2020)
Blank lines part the entries; values can stand above or below the compound they belong to.

Key:
Recombinant human c-Kit = Recombinant human c-Kit (Homo sapiens (Human), UniProt P10721); test: c-KIT kinase assay (ADP-Glo); type: biochemical; settings: Table 3, kinase selectivity
Experimental: ADP-Glo assay kit was purchased from Promega. Magnesium chloride (MgCl2), Manganese(II) chloride (MnCl2), Bovine serum albumin (BSA) and dimethylsulfoxide (DMSO) were purchased from Sigma-Aldrich. Tris-HCl buffer was purchased from Biosesang. c-Kit kinase and Poly (4:1 Glu, Tyr) Peptide were purchased from Signalchem.
c-Kit kinase activity was measured by Promega's ADP-Glo™ Assay.

in vivo = settings: male, ICR, mouse, po, 5 mg/kg
Aβ25-35 induced AD mice [1] = test: Lipid peroxidation in hippocampus homogenates of Aβ25-35 injected mice; type: in vivo; settings: once daily oral dosing of 3 mg/kg and 10 mg/kg
Source text: 10 Days after ICV injection of oligomeric Aβ25-35 peptide, the hippocampus was dissected out. And lipid peroxidation level was quantified in the hippocampus homogenates. ICV injection of oligomeric Aβ25-35 peptide induced lipid peroxidation, a marker for oxidative stress. […] (FIG. 7)

[2] = Oral dose pharmacokinetic study in mice; settings: for brain exposure compared with nilotinib: oral 5 mg/kg
[3] = system: α-synuclein PFF induced PD mice; test: Pole test in α-synuclein PFF induced PD mice; type: in vivo
[4] = system: Phosphorylation of α-synuclein at ser129; test: Phosphorylation of α-synuclein in α-synuclein PFF induced PD model; type: in vivo, mice; settings: q.d.; for reduction of phosphorylation of α-synuclein at ser129: oral
[5] = system: PFF-induced neuronal toxicity; test: PFF-induced neuronal toxicity; type: cell-based; settings: dose: 0.5, 1, 5, 10, 100 nM
Aβ25-35 induced AD mice [6] = test: Y-maze spontaneous alternation in Aβ25-35 induced AD mice; type: in vivo; settings: orally once daily for 10 days; Example 4 1, 3 and 10 mg/kg, nilotinib 3 mg/kg
Source text: Y-maze test as a behavioral test was used to assess memory function and the willingness of rodents to explore new environments ICV injection of oligomeric Aβ25-35 peptide triggered neurotoxic effects and behavioral deficit in Y-maze test evaluating short term memory, by measurement of spontaneous alternation, while any change of motor symptom was not observed by measurement of locomotion.

Aβ25-35 induced AD mice [7] = test: Step-through passive avoidance (STPA) test in Aβ25-35 induced AD mice; type: in vivo; settings: orally once daily for 10 days; Example 4 1, 3 and 10 mg/kg, nilotinib 3 mg/kg
[8] = system: α-synuclein PFF-induced pathologic aggregation (Lewy body-like pathology); test: α-synuclein PFF-induced pathologic aggregation; type: cell-based
hERG = hERG (Homo sapiens (Human), UniProt Q12809); test: hERG activity
[9] = 10 mg/kg orally once daily for 5 months

Chain of Recombinant human c-Kit (P10721 26-976): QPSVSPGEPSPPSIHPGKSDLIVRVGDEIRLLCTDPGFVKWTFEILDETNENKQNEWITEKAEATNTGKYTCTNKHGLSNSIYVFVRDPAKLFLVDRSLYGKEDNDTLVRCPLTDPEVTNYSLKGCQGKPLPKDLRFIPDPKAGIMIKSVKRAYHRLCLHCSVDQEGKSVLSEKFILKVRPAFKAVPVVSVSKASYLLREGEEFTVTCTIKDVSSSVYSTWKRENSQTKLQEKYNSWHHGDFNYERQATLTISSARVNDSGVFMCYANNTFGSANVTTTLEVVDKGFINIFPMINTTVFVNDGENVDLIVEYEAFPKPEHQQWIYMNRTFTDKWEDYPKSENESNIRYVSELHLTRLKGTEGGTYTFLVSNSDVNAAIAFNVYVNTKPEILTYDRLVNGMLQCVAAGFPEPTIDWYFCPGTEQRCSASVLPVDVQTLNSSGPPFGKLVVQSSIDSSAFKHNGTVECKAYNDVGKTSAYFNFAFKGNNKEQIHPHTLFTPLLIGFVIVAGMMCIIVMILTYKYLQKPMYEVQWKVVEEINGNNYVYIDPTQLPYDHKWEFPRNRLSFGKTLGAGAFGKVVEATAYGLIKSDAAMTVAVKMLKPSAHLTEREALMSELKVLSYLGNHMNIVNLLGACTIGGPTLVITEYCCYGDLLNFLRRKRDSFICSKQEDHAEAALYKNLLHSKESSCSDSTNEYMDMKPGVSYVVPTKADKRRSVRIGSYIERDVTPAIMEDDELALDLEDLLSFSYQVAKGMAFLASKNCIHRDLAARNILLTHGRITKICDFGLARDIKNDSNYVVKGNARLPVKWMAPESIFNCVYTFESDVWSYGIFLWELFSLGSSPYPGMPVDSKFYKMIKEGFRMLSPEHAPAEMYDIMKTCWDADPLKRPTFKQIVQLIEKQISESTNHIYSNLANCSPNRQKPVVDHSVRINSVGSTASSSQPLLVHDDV
Chain of hERG (Q12809 whole entry): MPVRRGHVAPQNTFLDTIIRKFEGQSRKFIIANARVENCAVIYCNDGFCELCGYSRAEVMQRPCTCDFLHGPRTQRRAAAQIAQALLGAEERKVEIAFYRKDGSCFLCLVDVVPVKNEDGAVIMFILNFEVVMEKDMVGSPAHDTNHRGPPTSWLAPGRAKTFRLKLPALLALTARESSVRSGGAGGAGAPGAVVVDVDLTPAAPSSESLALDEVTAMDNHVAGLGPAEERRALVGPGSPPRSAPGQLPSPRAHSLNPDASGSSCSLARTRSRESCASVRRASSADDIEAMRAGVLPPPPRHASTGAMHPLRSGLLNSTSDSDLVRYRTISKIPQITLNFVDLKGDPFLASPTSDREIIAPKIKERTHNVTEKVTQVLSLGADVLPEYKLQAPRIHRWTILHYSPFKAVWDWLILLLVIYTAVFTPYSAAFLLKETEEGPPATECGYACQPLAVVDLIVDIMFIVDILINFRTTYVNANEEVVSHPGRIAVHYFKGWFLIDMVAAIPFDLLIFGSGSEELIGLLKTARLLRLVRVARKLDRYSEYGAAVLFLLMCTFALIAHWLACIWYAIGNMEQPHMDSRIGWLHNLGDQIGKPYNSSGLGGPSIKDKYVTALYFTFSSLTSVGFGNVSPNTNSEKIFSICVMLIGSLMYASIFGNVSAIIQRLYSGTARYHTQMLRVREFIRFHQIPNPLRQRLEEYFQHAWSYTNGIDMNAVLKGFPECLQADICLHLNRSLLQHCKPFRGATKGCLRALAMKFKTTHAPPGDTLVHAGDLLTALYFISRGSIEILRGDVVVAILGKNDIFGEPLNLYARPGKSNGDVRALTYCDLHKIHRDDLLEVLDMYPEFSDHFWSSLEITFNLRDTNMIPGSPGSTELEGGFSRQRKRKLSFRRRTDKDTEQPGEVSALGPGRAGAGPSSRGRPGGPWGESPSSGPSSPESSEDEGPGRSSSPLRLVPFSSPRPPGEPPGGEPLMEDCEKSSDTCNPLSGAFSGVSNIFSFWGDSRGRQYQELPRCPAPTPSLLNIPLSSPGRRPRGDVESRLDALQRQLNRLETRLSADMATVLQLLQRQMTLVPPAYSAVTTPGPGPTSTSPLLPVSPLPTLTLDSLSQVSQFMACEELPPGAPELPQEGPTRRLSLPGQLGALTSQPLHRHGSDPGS

Structure (SMILES): Cc1ccncc1-c1ccc2nc(NC(=O)[C@@H]3C[C@@H]3F)sc2c1 [Example 4, (1S,2S)-2-fluoro-N-(6-(4-methylpyridin-3-yl)benzo[d]thiazol-2-yl)cyclopropane-1-carboxamide]
lipid peroxidation (oxidative stress marker) in hippocampus (Aβ25-35 induced AD mice [1]): completely inhibited
PK profile [2]: good PK profiles
AUCINF ([2]; PO 5 mg/kg, Table 5): 682041.7 ng·min/mL
brain exposure compared with nilotinib [2]: better brain exposure than nilotinib
AUC(0-inf) (in vivo; brain): 4140 ng·h/mL
AUC(0-inf) (in vivo; plasma): 11400 ng·h/mL
Cmax (in vivo; plasma): 3590 ng/mL
Tmax (in vivo; plasma): 30 min
improvement of pole climb down time ([3]; 0.3 mg/kg orally once daily for 5 months): 50%
pole climb down time [3, 9]: completely recovered
pole climb down time ([3]; 0.3, 1, 3 and 10 mg/kg orally once daily for 5 months): recovered by treatment of Example 4 in a dose-dependent manner
reduction of phosphorylation of α-synuclein at ser129 ([4]; 3 mg/kg): about 50%
reduction of phosphorylation of α-synuclein at ser129 ([4]; 10 mg/kg): ~80%
PFF-induced neuronal toxicity [5]: inhibited PFF-induced neuronal toxicity in a dose dependent manner
deficits of alternation behavior (spatial working memory) (Aβ25-35 induced AD mice [6]): very significantly and fully alleviated
contextual long-term memory deficits (Aβ25-35 induced AD mice [7]): very significantly and fully alleviated
α-synuclein PFF-induced pathologic aggregation (Lewy body-like pathology) [8]: decreased

Structure (SMILES): Cc1cn(-c2cc(NC(=O)c3ccc(C)c(Nc4nccc(-c5cccnc5)n4)c3)cc(C(F)(F)F)c2)cn1 [Nilotinib, nilotinib, reference compound]
pole climb down time [3, 9]: just a slight improvement
effect on phosphorylation of α-synuclein ([4]; 3 and 10 mg/kg): not effective
deficits of alternation behavior (spatial working memory) (Aβ25-35 induced AD mice [6]): partially alleviated
contextual long-term memory deficits (Aβ25-35 induced AD mice [7]): no significant effect

Structure (SMILES): Cc1ccncc1-c1ccc2nc(NC(=O)C3CC3)sc2c1 [Example 5, N-(6-(4-methylpyridin-3-yl)benzo[d]thiazol-2-yl)cyclopropanecarboxamide]
AUC(0-inf) (in vivo; brain): 1980 ng·h/mL
AUC(0-inf) (in vivo; plasma): 8480 ng·h/mL

Continued, in another order:

IC50 (Recombinant human c-Kit): > 10 µM
Structure (SMILES): C=C(C)c1ccc(C)c(-c2ccc3nc(NC(=O)[C@@H]4C[C@@H]4F)sc3c2)c1 [Example 17, (1S,2S)-2-fluoro-N-(6-(2-methyl-5-(prop-1-en-2-yl)phenyl)benzo[d]thiazol-2-yl)cyclopropane-1-carboxamide]

AUC(0-inf) (in vivo; brain): 3950 ng·h/mL
Kp (in vivo; brain/plasma): 0.5
AUC(0-inf) (in vivo; plasma): 4860 ng·h/mL
Structure (SMILES): Cc1ccncc1-c1ccc2sc(NC(=O)[C@@H]3C[C@@H]3F)nc2c1 [Example 6, (1S,2S)-2-fluoro-N-(5-(4-methylpyridin-3-yl)benzo[d]thiazol-2-yl)cyclopropane-1-carboxamide]

IC50 (Recombinant human c-Kit): 1.02 µM
Structure (SMILES): Cc1c(O)cccc1-c1ccc2nc(NC(=O)[C@@H]3C[C@@H]3F)sc2c1 [Example 22, (1S,2S)-2-fluoro-N-(6-(3-hydroxy-2-methylphenyl)benzo[d]thiazol-2-yl)cyclopropane-1-carboxamide]

IC50 (Recombinant human c-Kit): 1.34 µM
Structure (SMILES): Cc1ccc(O)cc1-c1ccc2nc(NC(=O)[C@@H]3C[C@@H]3F)sc2c1 [Example 14, (1S,2S)-2-fluoro-N-(6-(5-hydroxy-2-methylphenyl)benzo[d]thiazol-2-yl)cyclopropane-1-carboxamide]

PK profile [2]: good PK profiles
brain exposure compared with nilotinib [2]: better brain exposure than nilotinib
Cmax (in vivo; plasma): 4170 ng/mL
Tmax (in vivo; plasma): 60 min
Structure (SMILES): Cc1c(F)cncc1-c1ccc2nc(NC(=O)[C@@H]3C[C@@H]3F)sc2c1 [Example 8, (1S,2S)-2-fluoro-N-(6-(5-fluoro-4-methylpyridin-3-yl)benzo[d]thiazol-2-yl)cyclopropane-1-carboxamide]
inhibition at 10 µM (hERG): 12.6%
